Results: patent publication US9169241B2, “Quinolinyloxyphenylsulfonamides” (Max-Planck-Gesellschaft Zur Forderung der Wissenschaften …, priority 2009, dated 2015)
Like-named read-outs stand apart in the source and are kept apart here.

Key:
Hs578T [1] = test: Matrigel outgrowth assay/branching assay; format: cell-based; conditions: Homo sapiens, Hs-578T; HS578T cell line; Table Ib; read-out: Total branching inhibition in Matrigel HS578T
Method in brief: (§1)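 Cells (5000/well) were seeded onto polymerized 3 mg/ml Matrigel with compound at 3.125, 1.56 or 0.78 μM, or DMSO. Imaging by inverted microscopy at 48, 72 and 96 h scored invasive branching. Only concentrations giving total branching inhibition counted as positive.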

indicated cell line = test: Wound healing migration assay (Table IV); format: cell-based; conditions: compounds at 12.5, 6.25, 3.125 μM, 48 h-72 h
Method in brief: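 Cells seeded at 150000/24 well, grown to monolayer overnight, scratched with a pipette tip, then treated with compound at 12.5, 6.25 or 3.125 μM versus DMSO. Stopped by crystal violet fixation at 48-72 h once control wounds closed; IC50 taken as 50% wound size between t0 and t48 or t72.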

U138 = test: Cell vitality assay (ATP assay, CellTiter-Glo); format: cell-based; conditions: U138, 72 h; Table IIa; read-out: IC50 ATP-Assay after 72 h U138
Method in brief: (§2)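 1000 cells/well were exposed to compound at 12.5 μM down to 0.195 μM (twofold steps) or DMSO for 72 h. ATP was then measured by luminescence after 10 min reagent lysis at room temperature. IC50 was taken as the concentration giving 50% of the DMSO-control ATP level.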

C8161 = test: Cell vitality assay (ATP assay, CellTiter-Glo); format: cell-based; conditions: Homo sapiens; C8161, 72 h; Table IIa; read-out: IC50 ATP-Assay after 72 h C8161
Method in brief: as §2

MDA-MB231 = test: Cell vitality assay (ATP assay, CellTiter-Glo); format: cell-based; conditions: Homo sapiens, MDA-MB-231; MDA-MB231, 72 h; Table IIa; read-out: IC50 ATP-Assay after 72 h MDA-MB231
Method in brief: as §2

SF763 = test: Cell vitality assay (ATP assay, CellTiter-Glo); format: cell-based; conditions: SF763, 72 h; Table IIa; read-out: IC50 ATP-Assay after 72 h SF763
Method in brief: as §2

U118 = test: Cell vitality assay (ATP assay, CellTiter-Glo); format: cell-based; conditions: U118, 72 h; Table IIa; read-out: IC50 ATP-Assay after 72 h U118
Method in brief: as §2

Hs578T [2] = test: Cell vitality assay (ATP assay, CellTiter-Glo); format: cell-based; conditions: Homo sapiens, Hs-578T, 72 h
Method in brief: as §2

SF126 = test: Cell vitality assay (ATP assay, CellTiter-Glo); format: cell-based; conditions: Homo sapiens, SF-126; SF126, 72 h; Table IIa; read-out: IC50 ATP-Assay after 72 h SF126
Method in brief: as §2

tumor cell = test: Matrigel outgrowth assay/branching assay (Table Va); format: cell-based
Method in brief: as §1

[3] = Homo sapiens, C8161 cells, read-out: IC50 Wound healing Assay C8161
[4] = SF763 cells, read-out: IC50 Wound healing Assay SF763
[5] = Hs578T, Table IIa, read-out: IC50 ATP-Assay after 72 h Hs578T
[6] = Homo sapiens, C8161 cells, read-out: Total branching inhibition in Matrigel C8161
[7] = Homo sapiens, Hs-578T, Hs578T cells, read-out: Total branching inhibition in Matrigel Hs578T
[8] = U118 cells, read-out: Total branching inhibition in Matrigel U118
[9] = U138 cells, read-out: Total branching inhibition in Matrigel U138

Compound | IC50 (Hs578T [1]) [µM] | IC50 (indicated cell line; [3]) [µM] | IC50 (indicated cell line; [4]) [µM] | IC50 (U138) [µM] | IC50 (C8161) [µM] | IC50 (MDA-MB231) [µM] | IC50 (SF763) [µM] | IC50 (U118) [µM] | IC50 (Hs578T [2]; [5]) [µM] | IC50 (SF126) [µM] | melting point [°C] | IC50 (tumor cell; [6]) [µM] | IC50 (tumor cell; [7]) [µM] | IC50 (tumor cell; [8]) [µM] | IC50 (tumor cell; [9]) [µM] | IC50 (Hs578T [2]; HS578T cell line, Table Ib, read-out: IC50 ATP-Assay HS578T after 72 h) [µM]
COc1cc2c(Oc3ccc(NS(=O)(=O)c4ccc(F)c(C#N)c4)cc3F)ccnc2cc1OCCCN1CCCC(C)C1 (stereo not shown) [Example 72, 3-Cyano-4-fluoro-N-(3-fluoro-4-{6-methoxy-7-[3-(3-methyl-piperidin-1-yl)-propoxy]-quinolin-4-yloxy}-phenyl)-benzenesulfonamide] | ≤ 10 | ≤ 12.5 | ≤ 12.5 | 12.5 to 50 | 12.5 to 50 | 12.5 to 50 | 12.5 to 50 | 12.5 to 50 | 12.5 to 50 | 12.5 to 50 | 125 to 127 | ≤ 5 | ≤ 5 | ≤ 5 | ≤ 5 | –
COc1cc2c(Oc3ccc(NS(=O)(=O)c4ccccc4OC(F)(F)F)cc3F)ccnc2cc1OCCCN1CCN(C)CC1 [Example 25, N-(3-Fluoro-4-{6-methoxy-7-[3-(4-methyl-piperazin-1-yl)-propoxy]-quinolin-4-yloxy}-phenyl)-2-trifluoromethoxy-benzenesulfonamide] | ≤ 10 | 12.5 to 50 | 12.5 to 50 | ≤ 12.5 | ≤ 12.5 | ≤ 12.5 | ≤ 12.5 | ≤ 12.5 | ≤ 12.5 | ≤ 12.5 | 86 to 90 | ≤ 5 | ≤ 5 | ≤ 5 | 5 to 50 | –
COc1cc2c(Oc3ccc(NS(=O)(=O)c4ccc(Cl)s4)cc3F)ccnc2cc1OCCCN1CCCC(C)C1 (stereo not shown) [Example 63, 5-Chloro-thiophene-2-sulfonic acid (3-fluoro-4-{6-methoxy-7-[3-(3-methyl-piperidin-1-yl)-propoxy]-quinolin-4-yloxy}-phenyl)-amide] | ≤ 10 | 12.5 to 50 | ≤ 12.5 | 12.5 to 50 | ≤ 12.5 | ≤ 12.5 | ≤ 12.5 | ≤ 12.5 | ≤ 12.5 | 12.5 to 50 | 100 to 103 | 5 to 50 | ≤ 5 | ≤ 5 | ≤ 5 | ≤ 12.5
COc1cc2c(Oc3ccc(NS(=O)(=O)c4ccccc4Cl)cc3F)ccnc2cc1OCCCN1CCN(C)CC1 [Example 29, 2-Chloro-N-(3-fluoro-4-{6-methoxy-7-[3-(4-methyl-piperazin-1-yl)-propoxy]-quinolin-4-yloxy}-phenyl)-benzenesulfonamide] | ≤ 10 | ≤ 12.5 | ≤ 12.5 | ≤ 12.5 | ≤ 12.5 | ≤ 12.5 | 12.5 to 50 | ≤ 12.5 | 12.5 to 50 | ≤ 12.5 | 96 to 98 | ≤ 5 | ≤ 5 | ≤ 5 | 5 to 50 | –
COc1cc2c(Oc3ccc(NS(=O)(=O)c4cccc(C#N)c4)cc3F)ccnc2cc1OCCCN1CCCC(C)C1 (stereo not shown) [Example 41, 3-Cyano-N-(3-fluoro-4-{6-methoxy-7-[3-(3-methyl-piperidin-1-yl)-propoxy]-quinolin-4-yloxy}-phenyl)-benzenesulfonamide] | ≤ 10 | 12.5 to 50 | ≤ 12.5 | ≤ 12.5 | ≤ 12.5 | ≤ 12.5 | ≤ 12.5 | ≤ 12.5 | ≤ 12.5 | 12.5 to 50 | 125 to 127 | ≤ 5 | ≤ 5 | ≤ 5 | 5 to 50 | –
